Values quoted from earlier work in patent USRE41489E1 (priority 1997, dated 2010).
Where two headings read alike, the source gives them in different places.

Columns and labels:
[1] = parenteral, on a weight basis
[2] = target: δ receptors (Homo sapiens, UniProt P41143)
[3] = rats
[4] = conscious postoperative patients
[5] = tested on: plasma proteins
[6] = not given; remark: listed apart in the source
[7] = estimated
[8] = intravenous single dose of about 0.3 mg

Chain of δ receptors (P41143 whole entry): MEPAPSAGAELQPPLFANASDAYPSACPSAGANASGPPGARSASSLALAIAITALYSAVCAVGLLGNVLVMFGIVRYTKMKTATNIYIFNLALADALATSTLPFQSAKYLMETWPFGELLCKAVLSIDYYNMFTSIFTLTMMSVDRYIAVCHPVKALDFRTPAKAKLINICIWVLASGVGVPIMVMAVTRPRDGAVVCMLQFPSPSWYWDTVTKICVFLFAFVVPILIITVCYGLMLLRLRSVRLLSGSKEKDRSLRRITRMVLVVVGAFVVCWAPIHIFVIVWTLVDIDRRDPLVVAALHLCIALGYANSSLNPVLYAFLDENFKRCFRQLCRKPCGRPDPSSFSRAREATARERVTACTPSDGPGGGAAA

## CO[C@]12CC[C@@]3(C[C@@H]1[C@](C)(O)C(C)(C)C)[C@H]1Cc4ccc(O)c5c4[C@@]3(CCN1CC1CC1)[C@H]2O5 [buprenorphine, 21-cyclopropyl-7-[(S)-1-hydroxy-1,2,2-trimethylpropyl]-6,14-endo-ethano-6,7,8,14-tetrahydrooripavine]
[1]
  analgesic potency relative to meperidine: about 600 times
  analgesic potency relative to pentazocine: about 200 times
[2]
  binding affinity to δ receptors: lower affinity
[3]; intramuscular administration
  time to highest concentrations in the liver: ≤ 40 min
[3]; oral administration
  time to highest concentrations in the liver: ≤ 10 min
[4]
  total plasma clearance: approximately 1.28 l/minute
0.4 mg sublingual single dose
  Cmax: 0.50 ± 0.06 ng/mL
  Tmax: 3.5 ± 0.667 h
  systemic availability: 57.7%
0.8 mg sublingual single dose
  Cmax: 1.04 ± 0.27 ng/mL
  Tmax: 3.2 ± 0.817 h
  systemic availability: 54.1%
[5]
  bound to plasma proteins: approximately 96%
[6]; intramuscular second 0.3-mg dose 3 hours after the initial intravenous dose
  mean peak plasma buprenorphine concentration: about 3.6 ng/ml
[6]; intramuscular second 0.3-mg dose, after about 3 hours
  plasma concentration: about 0.4 ng/ml
[6]; intravenous about 0.3 mg, after about 5 minutes
  plasma concentration: about 9 ng/ml
[6]; intravenous about 0.3 mg, after about 3 hours
  plasma concentration: about 0.4 ng/ml
[6]; [8]
  mean peak plasma drug concentration: about 18 ng/ml
  time of mean peak plasma concentration: ≤ 2 min
[7]
  oral bioavailability: 15%
